Laboratory results taken from PubChem BioAssay (NCI).
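Five compound concentrations were applied to cells in 96-well plates for 48 hours; endpoints were derived by simple linear interpolation of the resulting dose-response curve. TGI: concentration producing complete growth inhibition.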

What was measured:
Test in all cases: NCI tumour cell line growth inhibition, 48 h
OVCAR-3 ovarian = test system: OVCAR-3 ovarian
OVCAR-5 ovarian = test system: OVCAR-5 ovarian
XF 498 CNS = test system: XF 498 CNS
DMS 273 small cell lung = test system: DMS 273 small cell lung
SNB-75 CNS = test system: SNB-75 CNS
P388/ADR leukemia = test system: P388/ADR leukemia
SK-MEL-28 melanoma = test system: SK-MEL-28 melanoma
HT29 colon = test system: HT29 colon
P388 leukemia = test system: P388 leukemia
SF-295 CNS = test system: SF-295 CNS
MALME-3M melanoma = test system: MALME-3M melanoma
SNB-78 CNS = test system: SNB-78 CNS
UO-31 renal = test system: UO-31 renal
SK-MEL-5 melanoma = test system: SK-MEL-5 melanoma
LOX IMVI melanoma = test system: LOX IMVI melanoma
SW-620 colon = test system: SW-620 colon
NCI/ADR-RES ovarian = test system: NCI/ADR-RES ovarian
NCI-H226 lung = test system: NCI-H226 lung
HOP-18 NSCLC = test system: HOP-18 NSCLC
RPMI-8226 leukemia = test system: RPMI-8226 leukemia

With Cc1c(N=NN(C)C)cc[n+]([O-])c1C the TGI (OVCAR-3 ovarian) was over 100 µM, the TGI (OVCAR-5 ovarian) was over 100 µM and the TGI (XF 498 CNS) was over 100 µM. It also gave a TGI (DMS 273 small cell lung) of over 100 µM, a TGI (SNB-75 CNS) of over 100 µM and a TGI (P388/ADR leukemia) of over 100 µM. The TGI (SK-MEL-28 melanoma) was over 100 µM, the TGI (HT29 colon) was over 100 µM and the TGI (P388 leukemia) was over 100 µM. It also gave a TGI (SF-295 CNS) of over 100 µM, a TGI (MALME-3M melanoma) of over 100 µM and a TGI (SNB-78 CNS) of over 100 µM. For the same compound, the TGI (UO-31 renal) was over 100 µM, the TGI (SK-MEL-5 melanoma) was over 100 µM and the TGI (LOX IMVI melanoma) was over 100 µM. It also gave a TGI (SW-620 colon) of over 100 µM, a TGI (NCI/ADR-RES ovarian) of over 100 µM and a TGI (NCI-H226 lung) of over 100 µM. It also gave a TGI (HOP-18 NSCLC) of over 100 µM and a TGI (RPMI-8226 leukemia) of over 100 µM.
With COC(=O)C1C(O)C(C)C(O)OC1C(C)C(O)C(C)/C=C\C=C(/C)C(=O)Nc1c(C)c(OC(C)=O)c2c(c1O)C(=O)C(C)=C1OCOC(/C(C)=C/C(C)=O)=C12 (stereo not drawn) the TGI (OVCAR-3 ovarian) was 20.5 µM, the TGI (OVCAR-5 ovarian) was 25 µM and the TGI (XF 498 CNS) was 24.6 µM. The TGI (DMS 273 small cell lung) was 25 µM, the TGI (SNB-75 CNS) was 29.1 µM and the TGI (P388/ADR leukemia) was 39.4 µM. The TGI (SK-MEL-28 melanoma) was 4.96 µM, the TGI (HT29 colon) was 26.5 µM and the TGI (P388 leukemia) was 12.4 µM. The TGI (SF-295 CNS) was 26 µM, the TGI (MALME-3M melanoma) was 24.8 µM and the TGI (SNB-78 CNS) was 24.9 µM. For the same compound, the TGI (UO-31 renal) was 25.1 µM, the TGI (SK-MEL-5 melanoma) was 23.5 µM and the TGI (LOX IMVI melanoma) was 26.6 µM. For the same compound, the TGI (SW-620 colon) was 20.4 µM, the TGI (NCI/ADR-RES ovarian) was 30.5 µM and the TGI (NCI-H226 lung) was 23.4 µM. For the same compound, the TGI (HOP-18 NSCLC) was 28.7 µM and the TGI (RPMI-8226 leukemia) was 28.2 µM.
O=C1CSC(C(N=Nc2ccc(Cl)cc2)c2nc3ccccc3[nH]2)=N1 (stereo not drawn) was tested, and the TGI (OVCAR-3 ovarian) was over 100 µM, the TGI (OVCAR-5 ovarian) was over 100 µM and the TGI (XF 498 CNS) was 45.9 µM. For the same compound, the TGI (DMS 273 small cell lung) was over 100 µM, the TGI (SNB-75 CNS) was 90.2 µM and the TGI (SK-MEL-28 melanoma) was 92.2 µM. For the same compound, the TGI (HT29 colon) was over 100 µM, the TGI (SF-295 CNS) was over 100 µM and the TGI (MALME-3M melanoma) was over 100 µM. The TGI (UO-31 renal) was over 100 µM, the TGI (SK-MEL-5 melanoma) was 88.4 µM and the TGI (SW-620 colon) was over 100 µM. The TGI (NCI-H226 lung) was 52 µM and the TGI (RPMI-8226 leukemia) was over 100 µM.
Compound Cn1c(=O)c2nc(NCCO)cnc2n(C)c1=O has a TGI (OVCAR-3 ovarian) of 57.9 µM, a TGI (OVCAR-5 ovarian) of over 100 µM and a TGI (XF 498 CNS) of over 100 µM. The TGI (DMS 273 small cell lung) was over 100 µM, the TGI (SNB-75 CNS) was 42.4 µM and the TGI (SK-MEL-28 melanoma) was over 100 µM. It also gave a TGI (HT29 colon) of over 100 µM, a TGI (SF-295 CNS) of over 100 µM and a TGI (MALME-3M melanoma) of over 100 µM. For the same compound, the TGI (SNB-78 CNS) was over 100 µM, the TGI (UO-31 renal) was over 100 µM and the TGI (SK-MEL-5 melanoma) was over 100 µM. For the same compound, the TGI (SW-620 colon) was over 100 µM and the TGI (RPMI-8226 leukemia) was over 100 µM.
CC(C)[C@](O)(C(=O)OCC1=CCN2CC[C@@H](O)[C@@H]12)[C@H](C)O showed a TGI (OVCAR-3 ovarian) of over 375 µM, a TGI (OVCAR-5 ovarian) of over 375 µM and a TGI (XF 498 CNS) of over 375 µM. The TGI (DMS 273 small cell lung) was over 375 µM, the TGI (SNB-75 CNS) was over 375 µM and the TGI (P388/ADR leukemia) was over 375 µM. For the same compound, the TGI (SK-MEL-28 melanoma) was over 375 µM, the TGI (HT29 colon) was over 375 µM and the TGI (P388 leukemia) was over 375 µM. The TGI (SF-295 CNS) was over 375 µM, the TGI (MALME-3M melanoma) was over 375 µM and the TGI (SNB-78 CNS) was over 375 µM. It also gave a TGI (UO-31 renal) of over 375 µM, a TGI (SK-MEL-5 melanoma) of over 80.8 µM and a TGI (LOX IMVI melanoma) of over 174 µM. The TGI (SW-620 colon) was over 237 µM, the TGI (NCI/ADR-RES ovarian) was over 375 µM and the TGI (NCI-H226 lung) was over 375 µM. The TGI (HOP-18 NSCLC) was over 375 µM and the TGI (RPMI-8226 leukemia) was over 375 µM.
